# Experimental data taken from patent publication US20230406885A1, “CYCLIC PEPTIDES FOR TRAPPING INTERLEUKIN-1 BETA” (MERCK SHARP & DOHME LLC, priority 2022, published 2023).
# *1 amine or outer side, *2 acyl side, *3 side chain or, on linkers, in order; H or OH if unused. Where a SMILES comes first, the peptide text is derived from it. [ ]: non-standard residue; d: D form. Phe(4-(4-Ac-piperazinyl)) = CC(=O)N1CCN(c2ccc(C[C@H](N)C(=O)O)cc2)CC1; Trp(4-Cl)(βS-Me) = C[C@@H](c1c[nH]c2cccc(Cl)c12)[C@H](N)C(=O)O; Trp(βS-Me,4-F) = C[C@@H](c1c[nH]c2cccc(F)c12)[C@H](N)C(=O)O; Bip(4'-COOH) = N[C@@H](Cc1ccc(-c2ccc(C(=O)O)cc2)cc1)C(=O)O; X3 = CC(=O)N1CCN(c2ncc(C[C@H](N[*:1])C(=O)[*:2])cn2)CC1; 1Nal(3S-Me) = C[C@@H](c1cccc2ccccc12)[C@H](N)C(=O)O; X11 = O=C([C@@H]1C[C@@H](NCc2ccccc2)CN1[*:1])[*:2]; X5 = O=C([C@@H]1C[C@@H](NCCc2ccccc2)CN1[*:1])[*:2]; Phe(3-allyloxy) = C=CCOc1cccc(C[C@H](N)C(=O)O)c1; Phe(3-Ph) = N[C@@H](Cc1cccc(-c2ccccc2)c1)C(=O)O; Phe(4-COOH) = N[C@@H](Cc1ccc(C(=O)O)cc1)C(=O)O; X4 = CCN[C@@H]1C[C@@H](C(=O)[*:2])N([*:1])C1; Pro(4R-NH2) = N[C@H]1CN[C@H](C(=O)O)C1; AEF = NCCOc1ccc(C[C@H](N)C(=O)O)cc1; hTyr = N[C@@H](CCc1ccc(O)cc1)C(=O)O; dDab = NCC[C@@H](N)C(=O)O; dNMeA = CN[C@H](C)C(=O)O; Nva = CCC[C@H](N)C(=O)O; Dap = NC[C@H](N)C(=O)O
# Biological target: T1, Recombinant human IL-1β (Homo sapiens, UniProt P01584)
# T1 construct: purchased BioLegend 579404
# T1 sequence (P01584 117-269): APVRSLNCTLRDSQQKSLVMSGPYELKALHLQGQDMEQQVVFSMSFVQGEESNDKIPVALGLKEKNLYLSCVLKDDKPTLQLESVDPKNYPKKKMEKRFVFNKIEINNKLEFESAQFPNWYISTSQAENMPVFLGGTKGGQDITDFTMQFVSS
# Test: IL-6 assay in MRC5 cells: inhibition of IL-1β induced IL-6 secretion (AlphaLISA)
# Type: cell-based
# Details: inhibition of IL-1β induced IL-6 secretion in MRC5 cells; IL-1β pre-incubated 1 hour with compound; read-out: MRC5 IC50
# Method in brief: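 IL-1β at 2×EC80 in seeding medium (EMEM, 0.025% BSA) preincubated 1 h at ambient temperature with compound, then 3000 MRC5 cells/well added and incubated overnight at 37 °C, 5% CO2. IL-6 in conditioned medium quantified by AlphaLISA; IC50 from 4-parameter logistic fit.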
row,Structure (SMILES),IC50 [nM]
1,"CC(C)C[C@@H]1NC(=O)[C@H](Cc2cccc(-c3ccccc3)c2)NC(=O)[C@H](Cc2ccc(-c3ccc(C(=O)O)cc3)cc2)NC(=O)CNC(=O)[C@@H](C)N(C)C(=O)[C@H](CC(=O)O)NC(=O)[C@H]([C@@H](C)c2c[nH]c3cccc(F)c23)NC(=O)[C@@H]2C[C@@H](N)CN2C(=O)CNC(=O)[C@H](Cc2ccc(C(=O)O)cc2)NC(=O)[C@H](Cc2c[nH]c3ccccc23)NC(=O)[C@H](Cc2ccc(-c3ccc(C(=O)O)cc3)cc2)NC(=O)[C@H](CCc2ccc(O)cc2)NC(=O)[C@@H](C)NC1=O [Example 75] (cyclo([Bip(4'-COOH)]W[Phe(4-COOH)]G[Pro(4R-NH2)][Trp(βS-Me,4-F)]D[dNMeA]G[Bip(4'-COOH)][Phe(3-Ph)]L[dA][hTyr]))",0.165
2,"C=CCOc1cccc(C[C@@H]2NC(=O)[C@H](Cc3ccc(-c4ccc(C(=O)O)cc4)cc3)NC(=O)CNC(=O)[C@@H](C)N(C)C(=O)[C@H](CC(=O)O)NC(=O)[C@H]([C@@H](C)c3c[nH]c4cccc(F)c34)NC(=O)[C@@H]3C[C@@H](N)CN3C(=O)CNC(=O)[C@H](Cc3ccc(C(=O)O)cc3)NC(=O)[C@H](Cc3c[nH]c4ccccc34)NC(=O)[C@H](Cc3ccc(-c4ccc(C(=O)O)cc4)cc3)NC(=O)[C@H](CCc3ccc(O)cc3)NC(=O)[C@@H](C)NC(=O)[C@H](CC(C)C)NC2=O)c1 [Example 76] (cyclo([Bip(4'-COOH)]W[Phe(4-COOH)]G[Pro(4R-NH2)][Trp(βS-Me,4-F)]D[dNMeA]G[Bip(4'-COOH)][Phe(3-allyloxy)]L[dA][hTyr]))",0.122
3,"C[C@@H]1C(=O)NCC(=O)N[C@@H](Cc2ccc(-c3ccc(C(=O)O)cc3)cc2)C(=O)N[C@@H](Cc2c[nH]c3ccccc23)C(=O)NCC(=O)N[C@H](CCN)C(=O)N[C@@H](CCc2ccc(O)cc2)C(=O)N[C@@H](Cc2ccc(-c3ccc(C(=O)O)cc3)cc2)C(=O)N[C@@H](Cc2c[nH]c3ccccc23)C(=O)N[C@@H](Cc2ccc(C(=O)O)cc2)C(=O)NCC(=O)N2C[C@H](N)C[C@H]2C(=O)N[C@@H]([C@@H](C)c2c[nH]c3cccc(F)c23)C(=O)N[C@@H](CC(=O)O)C(=O)N1C [Example 77] (cyclo([Bip(4'-COOH)]W[Phe(4-COOH)]G[Pro(4R-NH2)][Trp(βS-Me,4-F)]D[dNMeA]G[Bip(4'-COOH)]WG[dDab][hTyr]))",0.0601
4,"CC(C)C[C@@H]1NC(=O)[C@H](Cc2c[nH]c3ccccc23)NC(=O)[C@H](Cc2ccc(-c3ccc(C(=O)O)cc3)cc2)NC(=O)CNC(=O)[C@@H](C)N(C)C(=O)[C@H](CC(=O)O)NC(=O)[C@H]([C@@H](C)c2c[nH]c3cccc(F)c23)NC(=O)[C@@H]2C[C@@H](N)CN2C(=O)CNC(=O)[C@H](Cc2ccc(C(=O)O)cc2)NC(=O)[C@H](Cc2c[nH]c3ccccc23)NC(=O)[C@H](Cc2ccc(-c3ccc(C(=O)O)cc3)cc2)NC(=O)[C@H](CCc2ccc(O)cc2)NC(=O)[C@@H](C)NC1=O [Example 78] (cyclo([Bip(4'-COOH)]W[Phe(4-COOH)]G[Pro(4R-NH2)][Trp(βS-Me,4-F)]D[dNMeA]G[Bip(4'-COOH)]WL[dA][hTyr]))",0.0732
5,"CCC[C@@H]1NC(=O)[C@H](Cc2c[nH]c3ccccc23)NC(=O)[C@H](Cc2ccc(-c3ccc(C(=O)O)cc3)cc2)NC(=O)CNC(=O)[C@@H](C)N(C)C(=O)[C@H](CC(=O)O)NC(=O)[C@H]([C@@H](C)c2c[nH]c3cccc(F)c23)NC(=O)[C@@H]2C[C@@H](N)CN2C(=O)CNC(=O)[C@H](Cc2ccc(C(=O)O)cc2)NC(=O)[C@H](Cc2c[nH]c3ccccc23)NC(=O)[C@H](Cc2ccc(-c3ccc(C(=O)O)cc3)cc2)NC(=O)[C@H](C)NC(=O)[C@@H](C)NC1=O [Example 79] (cyclo([Bip(4'-COOH)]W[Phe(4-COOH)]G[Pro(4R-NH2)][Trp(βS-Me,4-F)]D[dNMeA]G[Bip(4'-COOH)]W[Nva][dA]A))",0.189
6,"CC(C)C[C@@H]1NC(=O)[C@H](CCCCN)NC(=O)[C@H](Cc2ccc(-c3ccc(C(=O)O)cc3)cc2)NC(=O)CNC(=O)[C@@H](C)N(C)C(=O)[C@H](CC(N)=O)NC(=O)[C@H]([C@@H](C)c2c[nH]c3cccc(F)c23)NC(=O)[C@@H]2C[C@@H](N)CN2C(=O)CNC(=O)[C@H](Cc2ccc(C(=O)O)cc2)NC(=O)[C@H](Cc2c[nH]c3ccccc23)NC(=O)[C@H](Cc2ccc(-c3ccc(C(=O)O)cc3)cc2)NC(=O)[C@H](CCc2ccc(O)cc2)NC(=O)[C@@H](C)NC1=O [Example 80] (cyclo([Bip(4'-COOH)]W[Phe(4-COOH)]G[Pro(4R-NH2)][Trp(βS-Me,4-F)]N[dNMeA]G[Bip(4'-COOH)]KL[dA][hTyr]))",0.291
7,"CC(C)C[C@@H]1NC(=O)[C@H](CCCCN)NC(=O)[C@H](Cc2ccc(-c3ccc(C(=O)O)cc3)cc2)NC(=O)CNC(=O)[C@@H](C)N(C)C(=O)[C@H](CC(N)=O)NC(=O)[C@H]([C@@H](C)c2c[nH]c3cccc(F)c23)NC(=O)[C@@H]2C[C@@H](N)CN2C(=O)CNC(=O)[C@H](Cc2ccc(C(=O)O)cc2)NC(=O)[C@H](Cc2c[nH]c3ccccc23)NC(=O)[C@H](Cc2ccc(-c3ccc(C(=O)O)cc3)cc2)NC(=O)[C@H](CCc2ccc(O)cc2)NC(=O)[C@@H](CCN)NC1=O [Example 81] (cyclo([Bip(4'-COOH)]W[Phe(4-COOH)]G[Pro(4R-NH2)][Trp(βS-Me,4-F)]N[dNMeA]G[Bip(4'-COOH)]KL[dDab][hTyr]))",0.255
8,C[C@@H]1C(=O)NCC(=O)N[C@@H](Cc2ccc(-c3ccc(C(=O)O)cc3)cc2)C(=O)N[C@@H](Cc2c[nH]c3ccccc23)C(=O)N[C@@H](CN)C(=O)N[C@H](C)C(=O)N[C@@H](CCc2ccc(O)cc2)C(=O)N[C@@H](Cc2ccc(-c3ccc(C(=O)O)cc3)cc2)C(=O)N[C@@H](Cc2c[nH]c3ccccc23)C(=O)N[C@@H](Cc2ccc(C(=O)O)cc2)C(=O)NCC(=O)N2C[C@H](NCc3ccccc3)C[C@H]2C(=O)N[C@@H]([C@@H](C)c2cccc3ccccc23)C(=O)N[C@@H](CC(=O)O)C(=O)N1C [Example 82] (cyclo([Bip(4'-COOH)]W[Phe(4-COOH)]G[X11][1Nal(3S-Me)]D[dNMeA]G[Bip(4'-COOH)]W[Dap][dA][hTyr])),0.0157
9,C[C@@H]1C(=O)NCC(=O)N[C@@H](Cc2ccc(-c3ccc(C(=O)O)cc3)cc2)C(=O)N[C@@H](Cc2c[nH]c3ccccc23)C(=O)N[C@@H](CN)C(=O)N[C@H](C)C(=O)N[C@@H](CCc2ccc(O)cc2)C(=O)N[C@@H](Cc2ccc(-c3ccc(C(=O)O)cc3)cc2)C(=O)N[C@@H](Cc2c[nH]c3ccccc23)C(=O)N[C@@H](Cc2ccc(C(=O)O)cc2)C(=O)NCC(=O)N2C[C@H](NCCc3ccccc3)C[C@H]2C(=O)N[C@@H]([C@@H](C)c2cccc3ccccc23)C(=O)N[C@@H](CC(=O)O)C(=O)N1C [Example 83] (cyclo([Bip(4'-COOH)]W[Phe(4-COOH)]G[X5][1Nal(3S-Me)]D[dNMeA]G[Bip(4'-COOH)]W[Dap][dA][hTyr])),0.0329
10,CCN[C@@H]1C[C@H]2C(=O)N[C@@H]([C@@H](C)c3cccc4ccccc34)C(=O)N[C@@H](CC(=O)O)C(=O)N(C)[C@H](C)C(=O)NCC(=O)N[C@@H](Cc3ccc(-c4ccc(C(=O)O)cc4)cc3)C(=O)N[C@@H](Cc3c[nH]c4ccccc34)C(=O)N[C@@H](CN)C(=O)N[C@H](C)C(=O)N[C@@H](CCc3ccc(O)cc3)C(=O)N[C@@H](Cc3ccc(-c4ccc(C(=O)O)cc4)cc3)C(=O)N[C@@H](Cc3c[nH]c4ccccc34)C(=O)N[C@@H](Cc3ccc(C(=O)O)cc3)C(=O)NCC(=O)N2C1 [Example 84] (cyclo([Bip(4'-COOH)]W[Phe(4-COOH)]G[X4][1Nal(3S-Me)]D[dNMeA]G[Bip(4'-COOH)]W[Dap][dA][hTyr])),0.0258
11,CC(=O)N1CCN(c2ccc(C[C@@H]3NC(=O)[C@H](CCc4ccc(O)cc4)NC(=O)[C@@H](CCN)NC(=O)CNC(=O)[C@H](Cc4c[nH]c5ccccc45)NC(=O)[C@H](Cc4ccc(-c5ccc(C(=O)O)cc5)cc4)NC(=O)CNC(=O)[C@@H](C)N(C)C(=O)[C@H](CC(=O)O)NC(=O)[C@H]([C@@H](C)c4c[nH]c5cccc(Cl)c45)NC(=O)[C@@H]4C[C@@H](N)CN4C(=O)CNC(=O)[C@H](Cc4ccc(C(=O)O)cc4)NC(=O)[C@H](Cc4c[nH]c5ccccc45)NC3=O)cc2)CC1 [Example 85] (cyclo([Phe(4-(4-Ac-piperazinyl))]W[Phe(4-COOH)]G[Pro(4R-NH2)][Trp(4-Cl)(βS-Me)]D[dNMeA]G[Bip(4'-COOH)]WG[dDab][hTyr])),0.0543
12,CC(=O)N1CCN(c2ncc(C[C@@H]3NC(=O)[C@H](CCc4ccc(O)cc4)NC(=O)[C@@H](C)NC(=O)[C@H](CN)NC(=O)[C@H](Cc4c[nH]c5ccccc45)NC(=O)[C@H](Cc4ccc(-c5ccc(C(=O)O)cc5)cc4)NC(=O)CNC(=O)[C@@H](C)N(C)C(=O)[C@H](CC(=O)O)NC(=O)[C@H]([C@@H](C)c4cccc5ccccc45)NC(=O)[C@@H]4C[C@@H](N)CN4C(=O)CNC(=O)[C@H](Cc4ccc(C(=O)O)cc4)NC(=O)[C@H](Cc4c[nH]c5ccccc45)NC3=O)cn2)CC1 [Example 88] (cyclo([X3]W[Phe(4-COOH)]G[Pro(4R-NH2)][1Nal(3S-Me)]D[dNMeA]G[Bip(4'-COOH)]W[Dap][dA][hTyr])),0.0945
13,CC(=O)NCCOc1ccc(C[C@@H]2NC(=O)[C@H](CCc3ccc(O)cc3)NC(=O)[C@@H](C)NC(=O)[C@H](CN)NC(=O)[C@H](Cc3c[nH]c4ccccc34)NC(=O)[C@H](Cc3ccc(-c4ccc(C(=O)O)cc4)cc3)NC(=O)CNC(=O)[C@@H](C)N(C)C(=O)[C@H](C)NC(=O)[C@H]([C@@H](C)c3cccc4ccccc34)NC(=O)[C@@H]3C[C@@H](N)CN3C(=O)CNC(=O)[C@H](Cc3ccc(C(=O)O)cc3)NC(=O)[C@H](Cc3c[nH]c4ccccc34)NC2=O)cc1 [Example 89] (cyclo([AEF](Ac)W[Phe(4-COOH)]G[Pro(4R-NH2)][1Nal(3S-Me)]A[dNMeA]G[Bip(4'-COOH)]W[Dap][dA][hTyr])),0.271
